The test concerns the target T1, HCV-p7 (synthetic p7_1-63) (Hepatitis C virus (isolate H77), UniProt P27958).
T1 construct: mature p7 of the HCV genome polyprotein; synthetic peptide (solid-phase), extra N-terminal Met (residue 0); 63 residues plus 1; in DPhPC membranes
Nature of the test: single channel recording in black lipid membrane. In kind it is biochemical. To be noted: DPhPC membranes; 10 µM methanol solution of p7 added; read after five minutes; concentration of HMA not in text.

T1 sequence (P27958 747-809): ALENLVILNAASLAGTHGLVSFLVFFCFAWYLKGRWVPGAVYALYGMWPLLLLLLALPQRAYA

On to `N=C(N)NC(=O)c1nc(Cl)c(N2CCCCCC2)nc1N` [HMA], for which the channel block entry is reported as “HCV-p7 ion channel activity is blocked by HMA in a full trace of different voltages”.

The values above are taken from publication PMC3883635, “Two Different Conformations in Hepatitis C Virus p7 Protein Account for Proton Transport and Dye Release” (PLoS ONE, 2014).
